Columns and labels:
Experiment in all cases: KINOMEscan competition binding
Conditions in all cases: compound 1.0 µM
[1] = target: DCLK2 (human) (UniProt Q8N568)
[2] = target: MAP2K3 (human) (UniProt P46734)
[3] = target: TEK (human) (UniProt Q02763)
[4] = target: FYN (human) (UniProt P06241)
[5] = target: RPS6KA6 KD2 (human) (UniProt Q9UK32)
[6] = test system: FGFR3 (human), P22607 [G697C]
[7] = target: MARK3 (human) (UniProt P27448)
[8] = target: GRK7 (human) (UniProt Q8WTQ7)
[9] = target: CDC2L2 (human) (UniProt Q9UQ88)
[10] = target: PLK1 (human) (UniProt P53350)
[11] = target: PAK4 (human) (UniProt O96013)
[12] = test system: KIT (human), P10721 [V559D]
[13] = target: MLTK (human) (UniProt Q9NYL2)
[14] = target: TAOK3 (human) (UniProt Q9H2K8)
[15] = target: TYRO3 (human) (UniProt Q06418)
[16] = test system: EGFR (human), P00533 [L858R]
[17] = target: AKT3 (human) (UniProt Q9Y243)
[18] = target: ACVRL1 (human) (UniProt P37023)
[19] = target: ACVR2A (human) (UniProt P27037)
[20] = target: ROS1 (human) (UniProt P08922)
[21] = test system: EGFR (human), P00533 [T790M/L858R]
[22] = target: CHUK (human) (UniProt O15111)
[23] = target: CDK3 (human) (UniProt Q00526)
[24] = target: DYRK1A (human) (UniProt Q13627)
[25] = test system: EGFR (human), P00533 [G719S]
[26] = target: MINK1 (human) (UniProt Q8N4C8)
[27] = target: MAP3K12 (human) (UniProt Q12852)
[28] = target: RPS6KA1 KD2 (human) (UniProt Q15418)
[29] = target: ERBB3 (human) (UniProt P21860)
[30] = target: CSF1R (human) (UniProt P07333)
[31] = target: LIMK2 (human) (UniProt P53671)
[32] = target: CAMK2A (human) (UniProt Q9UQM7)
[33] = test system: EGFR (human), P00533 [747-751 del / S ins]
[34] = target: BMP2K (human) (UniProt Q9NSY1)
[35] = target: RPS6KA5 KD2 (human) (UniProt O75582)
[36] = target: ERN1 (human) (UniProt O75460)
[37] = test system: EGFR (human), P00533 [752-759 del]
[38] = target: MAP4K1 (human) (UniProt Q92918)
[39] = target: PHKG2 (human) (UniProt P15735)
[40] = target: CAMK2B (human) (UniProt Q13554)
Chain of CAMK2B (human) (Q13554 whole entry, looked up): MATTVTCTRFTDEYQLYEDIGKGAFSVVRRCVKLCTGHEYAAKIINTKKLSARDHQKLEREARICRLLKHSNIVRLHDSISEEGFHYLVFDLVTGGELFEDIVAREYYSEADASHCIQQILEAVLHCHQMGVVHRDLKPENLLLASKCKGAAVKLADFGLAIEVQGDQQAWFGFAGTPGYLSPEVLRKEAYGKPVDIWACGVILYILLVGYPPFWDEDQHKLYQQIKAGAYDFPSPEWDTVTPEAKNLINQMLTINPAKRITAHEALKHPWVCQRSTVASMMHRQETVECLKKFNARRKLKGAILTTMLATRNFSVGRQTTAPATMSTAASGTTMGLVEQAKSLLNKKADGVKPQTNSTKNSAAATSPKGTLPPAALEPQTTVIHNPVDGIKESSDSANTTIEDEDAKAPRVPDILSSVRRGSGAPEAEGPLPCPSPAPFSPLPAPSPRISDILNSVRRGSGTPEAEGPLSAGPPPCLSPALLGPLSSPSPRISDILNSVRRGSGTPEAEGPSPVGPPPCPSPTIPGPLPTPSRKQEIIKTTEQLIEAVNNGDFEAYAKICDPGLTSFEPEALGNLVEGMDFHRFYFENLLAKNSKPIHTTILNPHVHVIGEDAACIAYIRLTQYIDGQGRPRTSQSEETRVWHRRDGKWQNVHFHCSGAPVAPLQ

Chain of MARK3 (human) (P27448 whole entry, looked up): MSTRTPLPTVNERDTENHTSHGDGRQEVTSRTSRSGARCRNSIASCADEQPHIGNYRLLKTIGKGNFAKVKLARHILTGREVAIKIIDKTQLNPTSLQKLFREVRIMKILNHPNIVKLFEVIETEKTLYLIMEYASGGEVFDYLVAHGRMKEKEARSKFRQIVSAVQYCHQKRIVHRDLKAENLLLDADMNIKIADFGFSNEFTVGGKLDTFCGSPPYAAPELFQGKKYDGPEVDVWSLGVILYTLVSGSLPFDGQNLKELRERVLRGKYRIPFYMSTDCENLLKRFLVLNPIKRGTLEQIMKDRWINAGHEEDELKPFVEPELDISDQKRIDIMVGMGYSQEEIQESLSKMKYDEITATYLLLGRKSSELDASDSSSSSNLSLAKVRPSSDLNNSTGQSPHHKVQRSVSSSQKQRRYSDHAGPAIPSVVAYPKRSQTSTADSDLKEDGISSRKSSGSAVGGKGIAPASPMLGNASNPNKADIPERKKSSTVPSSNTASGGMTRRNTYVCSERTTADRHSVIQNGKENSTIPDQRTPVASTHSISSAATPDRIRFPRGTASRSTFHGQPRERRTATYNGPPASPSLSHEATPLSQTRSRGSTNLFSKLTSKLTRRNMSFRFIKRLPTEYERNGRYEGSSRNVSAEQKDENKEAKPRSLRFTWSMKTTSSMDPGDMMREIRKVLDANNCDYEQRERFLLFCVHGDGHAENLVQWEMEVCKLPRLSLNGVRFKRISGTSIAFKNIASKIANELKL
Chain of ERBB3 (human) (P21860 whole entry, looked up): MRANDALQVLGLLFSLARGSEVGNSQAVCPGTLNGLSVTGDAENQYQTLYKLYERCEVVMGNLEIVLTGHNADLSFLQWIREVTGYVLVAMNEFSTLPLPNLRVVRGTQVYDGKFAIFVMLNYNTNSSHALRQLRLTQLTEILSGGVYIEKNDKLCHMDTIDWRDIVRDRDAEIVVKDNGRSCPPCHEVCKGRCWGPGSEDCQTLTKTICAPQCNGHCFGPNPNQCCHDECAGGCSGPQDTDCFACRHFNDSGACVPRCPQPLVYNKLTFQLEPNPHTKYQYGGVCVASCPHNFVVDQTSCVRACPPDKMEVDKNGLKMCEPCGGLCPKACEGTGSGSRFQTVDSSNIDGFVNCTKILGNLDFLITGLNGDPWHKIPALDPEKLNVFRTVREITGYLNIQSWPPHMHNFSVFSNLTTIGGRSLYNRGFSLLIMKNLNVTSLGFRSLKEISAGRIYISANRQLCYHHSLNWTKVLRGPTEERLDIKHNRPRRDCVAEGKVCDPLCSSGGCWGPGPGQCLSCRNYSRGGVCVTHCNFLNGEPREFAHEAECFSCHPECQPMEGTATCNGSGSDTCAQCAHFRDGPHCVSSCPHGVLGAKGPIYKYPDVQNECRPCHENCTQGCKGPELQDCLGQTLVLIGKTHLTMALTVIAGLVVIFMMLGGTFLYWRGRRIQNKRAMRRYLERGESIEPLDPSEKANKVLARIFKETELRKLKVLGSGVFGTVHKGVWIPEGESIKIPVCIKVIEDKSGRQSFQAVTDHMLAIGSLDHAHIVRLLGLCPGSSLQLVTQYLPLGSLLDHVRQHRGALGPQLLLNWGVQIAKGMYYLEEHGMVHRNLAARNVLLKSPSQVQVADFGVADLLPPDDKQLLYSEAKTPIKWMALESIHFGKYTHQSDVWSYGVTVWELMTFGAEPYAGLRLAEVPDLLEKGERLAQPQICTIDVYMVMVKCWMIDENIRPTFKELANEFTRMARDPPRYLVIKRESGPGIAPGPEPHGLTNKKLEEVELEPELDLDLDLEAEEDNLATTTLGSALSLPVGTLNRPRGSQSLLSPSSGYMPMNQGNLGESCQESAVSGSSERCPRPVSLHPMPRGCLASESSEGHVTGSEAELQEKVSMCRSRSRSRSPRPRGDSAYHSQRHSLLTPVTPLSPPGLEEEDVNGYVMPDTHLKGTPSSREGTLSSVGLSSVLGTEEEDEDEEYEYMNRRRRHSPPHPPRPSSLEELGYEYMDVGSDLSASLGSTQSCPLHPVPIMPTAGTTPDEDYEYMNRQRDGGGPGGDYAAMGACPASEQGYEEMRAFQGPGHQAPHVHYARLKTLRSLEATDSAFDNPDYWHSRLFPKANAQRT
Chain of EGFR (human), P00533 [L858R] (P00533 whole entry L858R, looked up): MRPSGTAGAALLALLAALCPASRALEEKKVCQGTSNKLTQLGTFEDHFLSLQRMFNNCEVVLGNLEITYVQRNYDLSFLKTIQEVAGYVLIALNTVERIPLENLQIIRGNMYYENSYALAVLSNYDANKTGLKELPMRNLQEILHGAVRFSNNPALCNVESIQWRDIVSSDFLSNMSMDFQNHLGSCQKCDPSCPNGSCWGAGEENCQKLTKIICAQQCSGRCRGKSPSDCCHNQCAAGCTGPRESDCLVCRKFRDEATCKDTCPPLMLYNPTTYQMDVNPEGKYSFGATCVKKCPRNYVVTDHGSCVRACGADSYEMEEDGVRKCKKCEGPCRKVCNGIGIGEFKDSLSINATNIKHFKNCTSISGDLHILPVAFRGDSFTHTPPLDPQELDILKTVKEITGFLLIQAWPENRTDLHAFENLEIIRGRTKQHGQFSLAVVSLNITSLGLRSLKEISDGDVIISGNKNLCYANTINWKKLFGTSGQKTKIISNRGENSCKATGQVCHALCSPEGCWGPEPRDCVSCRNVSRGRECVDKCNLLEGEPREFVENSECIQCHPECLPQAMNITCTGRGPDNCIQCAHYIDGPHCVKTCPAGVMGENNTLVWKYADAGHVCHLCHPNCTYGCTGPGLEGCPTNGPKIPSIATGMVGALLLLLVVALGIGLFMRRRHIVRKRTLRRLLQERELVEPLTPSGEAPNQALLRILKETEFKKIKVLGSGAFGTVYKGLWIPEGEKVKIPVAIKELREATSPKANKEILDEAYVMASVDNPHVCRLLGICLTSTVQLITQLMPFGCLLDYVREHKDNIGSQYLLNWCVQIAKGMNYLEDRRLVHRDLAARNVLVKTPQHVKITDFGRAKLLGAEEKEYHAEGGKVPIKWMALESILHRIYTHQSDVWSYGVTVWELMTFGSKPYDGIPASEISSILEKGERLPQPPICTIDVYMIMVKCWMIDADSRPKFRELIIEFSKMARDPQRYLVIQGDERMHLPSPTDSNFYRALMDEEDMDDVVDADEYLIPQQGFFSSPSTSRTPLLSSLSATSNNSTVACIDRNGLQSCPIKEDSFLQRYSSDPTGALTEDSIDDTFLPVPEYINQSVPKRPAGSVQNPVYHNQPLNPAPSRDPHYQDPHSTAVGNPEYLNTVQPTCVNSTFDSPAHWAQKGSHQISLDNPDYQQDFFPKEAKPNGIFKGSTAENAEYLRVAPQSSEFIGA
Chain of KIT (human), P10721 [V559D] (P10721 whole entry V559D, looked up): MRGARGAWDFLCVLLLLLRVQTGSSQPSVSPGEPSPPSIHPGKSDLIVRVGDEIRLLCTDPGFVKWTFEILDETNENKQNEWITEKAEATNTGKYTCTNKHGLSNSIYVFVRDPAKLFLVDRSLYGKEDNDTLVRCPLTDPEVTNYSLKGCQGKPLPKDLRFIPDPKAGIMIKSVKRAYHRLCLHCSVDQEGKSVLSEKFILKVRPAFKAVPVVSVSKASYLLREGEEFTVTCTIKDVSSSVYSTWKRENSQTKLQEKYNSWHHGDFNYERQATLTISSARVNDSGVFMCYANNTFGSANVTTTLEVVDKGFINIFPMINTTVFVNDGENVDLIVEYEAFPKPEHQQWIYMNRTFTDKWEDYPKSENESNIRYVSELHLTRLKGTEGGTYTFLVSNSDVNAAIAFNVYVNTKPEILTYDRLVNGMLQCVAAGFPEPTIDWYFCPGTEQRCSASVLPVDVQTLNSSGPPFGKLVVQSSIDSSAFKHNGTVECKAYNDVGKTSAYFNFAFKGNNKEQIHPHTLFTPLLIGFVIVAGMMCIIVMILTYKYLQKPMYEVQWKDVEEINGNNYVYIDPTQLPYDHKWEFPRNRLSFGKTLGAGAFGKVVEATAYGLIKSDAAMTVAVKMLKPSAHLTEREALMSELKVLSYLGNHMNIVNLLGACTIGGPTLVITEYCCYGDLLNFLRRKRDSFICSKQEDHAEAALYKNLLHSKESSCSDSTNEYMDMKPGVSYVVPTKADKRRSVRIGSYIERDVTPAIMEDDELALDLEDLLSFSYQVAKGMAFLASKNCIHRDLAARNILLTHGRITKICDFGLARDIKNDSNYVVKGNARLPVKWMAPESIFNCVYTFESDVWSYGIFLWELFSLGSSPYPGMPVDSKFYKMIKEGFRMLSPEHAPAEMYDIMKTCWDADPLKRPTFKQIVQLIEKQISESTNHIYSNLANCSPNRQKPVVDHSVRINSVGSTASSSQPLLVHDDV

inhibition of binding [1]: 30%
inhibition of binding [2]: 0%
inhibition of binding [3]: 0%
inhibition of binding [4]: 0%
inhibition of binding [5]: 18%
inhibition of binding [6]: 0%
inhibition of binding [7]: 0%
inhibition of binding [8]: 3%
inhibition of binding [9]: 19%
inhibition of binding [10]: 30%
inhibition of binding [11]: 13%
inhibition of binding [12]: 0%
inhibition of binding [13]: 0%
inhibition of binding [14]: 10%
inhibition of binding [15]: 0%
inhibition of binding [16]: 16%
inhibition of binding [17]: 0%
inhibition of binding [18]: 38%
inhibition of binding [19]: 5%
inhibition of binding [20]: 0%
inhibition of binding [21]: 0%
inhibition of binding [22]: 29%
inhibition of binding [23]: 0%
inhibition of binding [24]: 11%
inhibition of binding [25]: 10%
inhibition of binding [26]: 0%
inhibition of binding [27]: 0%
inhibition of binding [28]: 23%
inhibition of binding [29]: 22%
inhibition of binding [30]: 0%
inhibition of binding [31]: 0%
inhibition of binding [32]: 2%
inhibition of binding [33]: 4%
inhibition of binding [34]: 0%
inhibition of binding [35]: 50%
inhibition of binding [36]: 5%
inhibition of binding [37]: 0%
inhibition of binding [38]: 0%
inhibition of binding [39]: 11%
inhibition of binding [40]: 18%
SMILES: Nc1cc(C(F)(F)F)c(-c2cc(N3CCOCC3)nc(N3CCOCC3)n2)cn1
